We go through five compounds from patent US9676719B2, “Phenyl derivative” (ONO PHARMACEUTICAL CO., LTD., priority 2013, dated 2017).

SMILES strings stand for the structures. ≈ marks a conversion by molar mass, not a printed value. Bounds are passed on as bounds.

One data set can be described thus: Solubility measurement. The format is physicochemical. To be noted: aqueous buffer, kinetic from dmso stock; second solution of Japanese Pharmacopoeia (pH 6.8), room temperature, stirring 5 hours, LC-MS/MS. The procedure: A solution for obtaining a calibration curve was prepared by diluting a test substance (10 mmol/L, DMSO solution) in acetonitrile and adding acetonitrile containing an internal standard substance (warfarin) to adjust to 0.1, 0.4 and 2 μmol/L. A sample solution was prepared by adding to 495 μL (pH 6.8) of the second solution defined in Japanese Pharmacopoeia (a solution used was obtained by adding water to 250 mL of a 0.2 mol/L potassium dihydrogen phosphate reagent solution and 118 mL of a 0.2 mol/L sodium hydroxide reagent solution to adjust to 1000 mL) 5 μL of a test substance (10 mmol/L, DMSO solution), stirring at room temperature for 5 hours, transferring the obtained solution to a plate with a filter for vacuum filtration, diluting 20 μL of the filtrate with acetonitrile and adding acetonitrile containing the internal standard. The solution for obtaining a calibration curve and the sample solution (5 μL each) were injected to LC-MS/MS (Discovery Max from Thermo Scientific) for quantification (quantification range: 0.1 to 2 μmol/L). The solubility was calculated by multiplying the quantified value by 50. When the quantified value was outside of the quantification range, the solubility was expressed as <5 μmol/L or 100 μmol/L.

In a further data set the target is T1, human S1P2 (EDG-5) (Homo sapiens, UniProt O95136).
T1 construct: expressed in transfected cells; host or cells: CHO cells (G418 selection)
T1 sequence (O95136 whole entry): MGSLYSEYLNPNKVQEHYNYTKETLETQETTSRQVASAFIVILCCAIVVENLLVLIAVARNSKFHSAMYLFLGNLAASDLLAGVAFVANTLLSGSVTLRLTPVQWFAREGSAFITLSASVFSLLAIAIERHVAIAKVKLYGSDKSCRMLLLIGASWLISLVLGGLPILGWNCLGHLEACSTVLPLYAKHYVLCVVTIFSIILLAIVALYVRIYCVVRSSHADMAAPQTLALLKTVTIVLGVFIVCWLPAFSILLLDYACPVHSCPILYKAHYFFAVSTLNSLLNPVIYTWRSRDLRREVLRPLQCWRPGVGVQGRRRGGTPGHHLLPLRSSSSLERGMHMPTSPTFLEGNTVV
As to the kind of experiment: S1P2 (EDG-5) antagonistic activity by monitoring the change in intracellular calcium ion concentration (human). The format is cell-based. The note with it: CHO cells overexpressing human S1P2 (EDG-5) gene; suppression of S1P (30 or 300 nM)-induced intracellular calcium increase, Fura2-AM. The method, then:
(§1) Chinese hamster ovary (CHO) cells overexpressing the human S1P2 (EDG-5) gene were cultured in a Ham's F12 medium containing 10% fetal bovine serum (FBS), an antibiotic/antifungal agent and G418. CHO cells overexpressing the rat S1P2 (EDG-5) gene were cultured in a Ham's F12 medium containing 10% FBS, penicillin/streptomycin and blasticidin S. The cultured cells were incubated in a Fura2-AM solution (5 μM) [a Ham's F12 medium containing FBS (10%), HEPES buffer (20 mM, pH 7.2 to 7.5) and probenecid (2.5 mM)] at 37° C. for 60 minutes. The cells were washed twice with a Hanks' balanced saline containing HEPES buffer (20 mM, pH 7.2 to 7.5) and probenecid (2.5 mM) and immersed in the same solution. A plate was mounted on a fluorescence-based drug screening system and the intracellular calcium ion concentration was measured for 30 seconds without stimulation. A test substance (the final concentration of human S1P2: 0.25 nM to 25 μM and the final concentration of rat S1P2: 0.25 nM to 2.5 μM) or a dimethyl sulphoxide (DMSO) solution was added and after 3 minutes S1P (final concentration: 30 or 300 nM) was added and the increase in the intracellular calcium ion concentration before and after the addition of S1P was measured with an interval of 3 seconds (excitation wavelength: 340 nm and 380 nm, fluorescence wavelength: 540 nm).
(§2) The S1P2 (EDG-5) antagonistic activity was calculated as a suppression (%) from the following formula, wherein A is a control value which was a peak value after addition of S1P (final concentration: 30 or 300 nM) in the wells added with DMSO without a test substance and B is an increased amount after addition of S1P in the cells treated with the test substance: [M 1] Suppression (%)=[(A−B)/A]×100
(§3) Comparative compounds used were the compounds disclosed in Example 1 (64) (hereinafter referred to as comparative compound A) and Example 1 (85) (hereinafter referred to as comparative compound B) in Patent Document 3 (WO 2004/002531). The structural formulae of the comparative compounds are shown below respectively.

The target of the next data set is T2, rat S1P2 (EDG-5) (Rattus norvegicus, UniProt P47752).
T2 construct: expressed in transfected cells; host or cells: CHO cells (blasticidin S selection)
T2 sequence (P47752 whole entry): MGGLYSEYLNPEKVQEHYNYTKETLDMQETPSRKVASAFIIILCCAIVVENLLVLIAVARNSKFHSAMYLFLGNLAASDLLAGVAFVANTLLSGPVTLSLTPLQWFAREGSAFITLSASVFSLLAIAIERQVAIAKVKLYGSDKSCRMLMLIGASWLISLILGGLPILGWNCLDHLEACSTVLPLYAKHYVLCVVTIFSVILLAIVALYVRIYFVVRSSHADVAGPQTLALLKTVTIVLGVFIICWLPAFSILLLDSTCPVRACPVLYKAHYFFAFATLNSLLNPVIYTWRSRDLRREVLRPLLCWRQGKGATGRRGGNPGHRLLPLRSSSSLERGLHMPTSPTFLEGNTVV
The experiment in a line: S1P2 (EDG-5) antagonistic activity by monitoring the change in intracellular calcium ion concentration (rat). To be noted: CHO cells overexpressing rat S1P2 (EDG-5) gene; suppression of S1P (30 or 300 nM)-induced intracellular calcium increase, Fura2-AM. The format is cell-based. The procedure: as §1, §2, §3

Regarding `CCC(CC)CC1(O)CCN(C(=O)Nc2cc(F)cc(C(F)(F)F)c2)CC1` [Comparative compound A, reference compound], the solubility at 5 h in the data set “Solubility measurement” is < 5 µM.

`CCC(CC)CC1(O)CCN(C(=O)Nc2cccc(Oc3ccc(F)cc3)c2)CC1` [Comparative compound B, reference compound]: the half-maximal inhibitory concentration (IC50) came to 1200 nM at human S1P2 (EDG-5) and 27 nM on rat S1P2 (EDG-5). In addition, in the data set “Solubility measurement”, the solubility at 5 h was < 5 µM.

Turning to `CS(=O)(=O)NC(=O)c1ccc(Oc2cc(NC(=O)N3CCC(O)(C4CCCC4)CC3)cc(C(F)(F)F)c2)cc1` [Example 5 (1), 4-cyclopentyl-4-hydroxy-N-[3-{4-[(methylsulphonyl)carbamoyl]phenoxy}-5-(trifluoromethyl)phenyl]-1-piperidine carboxamide], the 50% inhibitory concentration (IC50) at human S1P2 (EDG-5) is 4.6 nM; on rat S1P2 (EDG-5), 9.4 nM. Moreover, the solubility at 5 h in “Solubility measurement” was determined as 72 µM (≈ 41 µg/mL).

With `O=C(Nc1cc(Oc2ccc(C3(C(=O)O)CCCC3)cc2)cc(C(F)(F)F)c1)N1CCC(O)(C2CCCCC2)C1` (stereo not shown) [Example 5 (7), 1-{4-[3-{[(3-cyclohexyl-3-hydroxy-1-pyrrolidinyl)carbonyl]amino}-5-(trifluoromethyl)phenoxy]phenyl}cyclopentanecarboxylic acid], the concentration for half-maximal inhibition (IC50) on human S1P2 (EDG-5) came out at 8.4 nM; at rat S1P2 (EDG-5), 5.1 nM. The amount in solution in “Solubility measurement” (solubility at 5 h) came to 74 µM (≈ 41.5 µg/mL).

`CC(C)CC1(O)CCN(C(=O)Nc2cc(C(=O)Oc3ccc(C(C)(C)C(=O)O)cc3)cc(C(F)(F)F)c2)CC1` [Example 8, 2-(4-{[3-{[(4-hydroxy-4-isobutyl-1-piperidinyl)carbonyl]amino}-5-(trifluoromethyl)benzoyl]oxy}phenyl)-2-methylpropanoic acid]: the values for the 50% inhibitory concentration (IC50) at human S1P2 (EDG-5) and at rat S1P2 (EDG-5) were 7.3 nM and 3 nM, respectively. The compound also returned a solubility at 5 h in the data set “Solubility measurement” of 90 µM (≈ 49.6 µg/mL).
